Data published in US12048687B2, “Methods of recruiting SDF-producing macrophages” (MedRegen, LLC, priority 2013, dated 2024).
Entries after “also recorded” stand apart in the source; their conditions may differ.

Tests used:
[1] = tested on: skin excisional wounds in diabetic rats; assay: skin excisional wound healing in STZ-induced diabetic rats; type: in vivo, rat (Lewis); conditions: Tacrolimus 0.1 mg/kg daily, AMD3100 1.0 mg/kg every two days s.c., saline day 23
From the text: Diabetic rat model. Streptozotocin (STZ) is an antibiotic that can cause pancreatic beta-cell destruction, so it is widely used experimentally as an agent capable of inducing insulin-dependent diabetes mellitus (IDDM), also known as type 1 diabetes mellitus (T1DM). The most common animal model of human diabetes is streptozotocin (STZ)-induced diabetes in the rat. Streptozotocin (STZ)-induced diabetic rat model used to determine the skin wound healing. All rats (aged at 12-16 weeks) developed diabetes (blood glucose >450 mg/dL) 2 weeks after STZ injection (50 mg/kg, i.p.). The four excisional wounds were placed 1 cm to either side of the midline and 1 cm above and below the midpoint between the costal margin and the iliac crests. The sterile disposable biopsy punch (5 mm in diameter; Miltex) was aligned vertically over the center of the mark and punched through the skin and Panniculus carnosus by applying pressure and twisting at the same time. The same procedure was repeated, generating four wounds on each animal. Treatment and wound measurement. […] Each wound site was digitally photographed at the indicated time intervals, and wound areas were determined on photographs using Adobe Photoshop (version 7.0; Adobe Systems, San Jose, CA). Changes in wound areas over time were expressed as the percentage of the initial wound areas. All wound evaluations were double blinded.

splinted skin wounds = assay: excisional wound splinting model, mice; type: in vivo, mouse; conditions: low-dose regimen, versus saline
From the text: In vivo excisional wound model. Animals aged 8-12 weeks were anesthetized with Isoflurane. The dorsal skin was shaved and cleaned with betadine and 70% ethanol. In mice, the midline and four points 1 cm on each side of the midline were marked by pen. Two points were at the level of the costal margin and two at the iliac crests designating the sites for excision (FIG. 1A). […] The sterile disposable biopsy punch (5 mm in diameter; Miltex) was aligned vertically over the center of the mark and punched through the skin and Panniculus carnosus by applying pressure and twisting at the same time. The same procedure was repeated, generating four wounds on each animal (Tomlinson and Ferguson, 2003). The animals were house singly after regaining consciousness. For the mouse splinted wound model, one 5 mm excision was made on each side of the midline on the mid back. The donut-shaped, 0.5 mm-thick silicone splints with a diameter two times that of the wound (Grace Bio-Laboratories, Bend, OR) were then centered, sutured and glued (Krazy Glue®; Elmer's Inc., Columbus, OH) (FIG. 1F; Galiano et al., 2004).
To deter this mechanism, we performed the excisional wound splinting model, where a splinting ring is bonded tightly to the skin around the wound (FIG. 1e). The wound therefore heals through granulation and re-epithelialization, a process similar to the healing of most human skin defects.

[2] = tested on: hair follicles and scar in healed wounds; assay: histology and hair follicle quantification of re-epithelialized wounds, mice; type: in vivo, mouse; conditions: day 15
From the text: Histology and microscopy. Tissues from wound sites were collected at day 3, 5, 7, 9 and 15 after injury. Quantitative analysis of hair follicles: The number of regenerated hair follicles was quantified in a double-blind fashion. In nonwounded skin, the number of hair follicles in the area from the same location as the wound were counted and compared to experimental groups (FIG. 2A and FIG. 9A; broken lines indicated wound margin). Masson's trichrome (commercial kit from Polysciences, Inc. Warrington, PA) was used to detect collagen fibers (blue color).

[3] = tested on: full-thickness burn wounds; assay: burn wound model in mice; type: in vivo, mouse; conditions: burned mice; Tacrolimus 0.1 mg/kg daily, AMD3100 1.0 mg/kg every two days s.c.; saline day 26
Protocol: Burn wound model in mice. Mice aged […] were anesthetized with 3% isoflurane (Baxter Healthcare Co., Deerfield, IL, USA) using an anesthesia machine, shaved on the dorsum and depilated with Nair cream (Church & Dwight Co., Princeton, NJ, USA). The burn wound was generated as previously reported (Arch Surg 2010; 145: 259-266). Briefly, a custom made 100-g aluminum rod was heated in a 100° C. water bath for 5 min. One burns of 1.2-cm diameter were produced on the dorsum of each mouse. To assure burn uniformity, only the weight of the rod provided pressure to the skin surface. Contact time of 4 s measured with a metronome was chosen to produce a standardized full-thickness burn. The burns were third degree including destruction of the skin, subcutaneous tissue and the Panniculous carnosus. Buprenorphine (0.1 mg/kg) was administrated subcutaneously for analgesia. Treatment and wound measurement. […] Each wound site was digitally photographed at the indicated time intervals, and wound areas were determined on photographs using Adobe Photoshop (version 7.0; Adobe Systems, San Jose, CA). Changes in wound areas over time were expressed as the percentage of the initial wound areas. All wound evaluations were double blinded.

[4] = tested on: α-smooth muscle actin (SMA) positive myofibroblast cells; assay: immunofluorescence staining for α-SMA; type: in vivo, mouse; conditions: mice, five days; versus saline group 1
Protocol: (§1) Immunofluorescence staining: For the immunofluorescence staining, frozen sections were fixed with acetone (−20° C.) for 10 min and dried for 1 h at room temperature. PBS containing 1% BSA and 5% normal donkey serum was used to block nonspecific background. Sections were incubated for 1.5 h at room temperature with primary antibodies included: rabbit polyclonal antibody specific for CD133 (1:100, ab19898, Abcam, Cambridge, MA), rabbit polyclonal antibody specific for c-Kit (1:100, sc-168, Santa Cruz Biotechnology, Santa Cruz, CA), goat polyclonal antibody specific for CD34 (1:100, AF4117, R&D Systems, Minneapolis, MN), mouse monoclonal antibody specific for SDF-1 (1:100, MAB310, R&D Systems), FITC-conjugated rat monoclonal antibody specific for F4/80 (1:100, 11-4801, eBioscience, San Diego, CA), mouse monoclonal antibody specific for α-SMA (1:100, ab7817, Abcam), rat monoclonal antibody specific for CD31 (1:100, 14-0311, eBioscience) or rabbit polyclonal antibody specific for HGF (1:100, sc-7949, Santa Cruz), or the combinations of two of them for double fluorescence staining. […] Tissue sections were analyzed by confocal microscopy (Carl Zeiss Microscopy, Thornwood, NY).

[5] = tested on: full-thickness skin excisional wounds; assay: in vivo full-thickness excisional wound model, mice; parameters: species or system mouse (C57BL/6); conditions: for day of complete wound closure: 5-mm excisions, s.c. Tacrolimus 0.1 mg kg-1 daily, AMD3100 1.0 mg kg-1 every other day, saline day 12
From the text: In vivo excisional wound model. Animals aged 8-12 weeks were anesthetized with Isoflurane. The dorsal skin was shaved and cleaned with betadine and 70% ethanol. In mice, the midline and four points 1 cm on each side of the midline were marked by pen. Two points were at the level of the costal margin and two at the iliac crests designating the sites for excision (FIG. 1A). In rats, the four excisional wounds were placed 1 cm to either side of the midline and 1 cm above and below the midpoint between the costal margin and the iliac […] (FIG. 7a). The sterile disposable biopsy punch (5 mm in diameter; Miltex) was aligned vertically over the center of the mark and punched through the skin and Panniculus carnosus by applying pressure and twisting at the same time. The same procedure was repeated, generating four wounds on each animal (Tomlinson and Ferguson, 2003). The animals were house singly after regaining consciousness. For the mouse splinted wound model, one 5 mm excision was made on each side of the midline on the mid back. The donut-shaped, 0.5 mm-thick silicone splints with a diameter two times that of the wound (Grace Bio-Laboratories, Bend, OR) were then centered, sutured and glued (Krazy Glue®; Elmer's Inc., Columbus, OH) (FIG. 1F; Galiano et al., 2004). […] Each wound site was digitally photographed at the indicated time intervals, and wound areas were determined on photographs using Adobe Photoshop (version 7.0; Adobe Systems, San Jose, CA). Changes in wound areas over time were expressed as the percentage of the initial wound areas (FIG. 1). Example 1: AMD3100 plus low-dose Tacrolimus accelerated wound healing after full-thickness skin excision. Four full-thickness wounds were generated by 5-mm diameter circular excisions on the shaved back of a wild-type C57/B6 mouse (FIG. 1A). Each wound site was photographed digitally at the indicated time intervals, and wound areas were calculated using Adobe Photoshop software. Changes in wound areas over time were expressed as the percentage of the initial wound areas (FIG. 1b). […] All wound evaluations were double blinded.

SDF-1 mRNA = assay: semi-quantitative RT-PCR of granulation tissues, SDF-1; type: in vivo, mouse; conditions: mice, 5 days post-injury
Protocol: Semiquantitative reverse transcription polymerase chain reaction analysis. Skin specimens were kept frozen at −80° C. until homogenized for RNA extraction using the TRIzol Reagent (Invitrogen, Carlsbad, CA, USA). First strand cDNA synthesis was then performed on 5 μg of total RNA using the superscript first-strand synthesis system for reverse transcription polymerase chain reaction (RT-PCR; Invitrogen) according to the manufacturer's instructions. The PCR contained 1 μL of deoxynucleoside triphosphate mix (10 mM each dNTP), 1 μL of 10 μM each primer, 0.4 μL, (5 IU μL−1) of Platinum Taq polymerase (Invitrogen), 1.5 μL of 50 mM MgCl2 and 2 μL […] as template in a 50 μL reaction solution. Thermal cycling was started with one cycle at 94° C. for 4 min. This was followed by 25-35 cycles at 94° C. for 30 s, 59° C. for 30 s, 72° C. for 30 s and 72° C. for final extension for 10 min. PCR products were electrophoresed on 1.2% agarose gels and visualized with GelStar® Stain (Lonza Rockland Inc., Rockland, ME). […] The expression levels of target mRNA were quantified by densitometry and normalized with the corresponding internal control.

[6] = tested on: lacZ and GFP positive (CD133 lineage) cells in granulation tissues; assay: CD133 lineage tracing in wounded CD133+/C-L mice; type: in vivo, mouse (CD133+/C-L); conditions: 5 days after wounding, versus saline group 1
Protocol: To activate CreERT2 expressed from the CD133C-L locus, thereby irreversibly activating GFP expression in CD133+ cells and their progeny, 7 days prior to surgery, adult mT/mG; CD133+/C-L-RosaEGFP mice were injected intraperitoneally with 5.0 mg of tamoxifen (Sigma) dissolved in corn oil (FIG. 6a; Muzumdar et al., 2007). […] Animal were sacrificed by CO2 euthanasia at indicated time points and skin samples including and surrounding the wound area were excised, fixed in 2% paraformaldehyde overnight at 4° C., cryo-protected in 30% sucrose overnight at 4° C. and frozen in OCT (optimum cutting temperature). Frozen sections were obtained using a Leica cryostat and slides were washed in PBS for 5 min. The lacZ analysis was performed with commercial β-Galactosidase staining kit (BioVision Inc. Milpitas, CA) utilizes X-gal as the substrate. […] For GFP microscopy, the skin sections were overlaid with mounting medium with DAPI (Vector Laboratories Inc., Burlingame, CA) and imaged with a confocal fluorescence microscopy (Carl Zeiss Microscopy, Thornwood, NY). To identify structure of lacZ- and GFP-positive tissues and cells, the same section was sequentially stained with DAPI for GFP fluorescence studies, followed by staining with X-gal and hematoxylin and eosin (H&E) (IHC World, Woodstock, MD), according to the manufacturer's instructions. […]

[7] = tested on: SDF-1 and F4/80 positive cells (macrophages) in wound sites; assay: immunofluorescence staining for SDF-1 and F4/80; type: in vivo, mouse; conditions: mice, 5 days post-injury
Protocol: as §1

[8] = tested on: c-Kit+, CD34+, CD133+ cells in wound tissue; assay: immunofluorescence staining of wound sections for stem cell markers; type: in vivo, mouse; conditions: mice, 5 days post-injury
Protocol: as §1

[9] = tested on: cell migration stimulated by CXCL12; conditions: cited from earlier work

SMILES | day of complete wound closure [1] [days] | wound repair in splinted wounds (splinted skin wounds) | number of hair follicles in re-epithelialized wound [2] | day of complete wound closure [3] [days] | number of α-SMA positive myofibroblast cells in granulation tissues [4] | day of complete wound closure [5] [days] | SDF-1 mRNA expression in granulation tissues (SDF-1 mRNA) | numbers of lacZ and GFP positive cells in granulation tissues [6] | number of SDF-1 and F4/80 positive cells in wound sites [7] | number of CD133+, c-Kit+ and CD34+ cells in wound tissue sections [8] | IC50 [9] [nM] | effect of high doses on skin wound healing ([5]; Tacrolimus 1.0 mg kg-1 daily, AMD3100 5.0 mg kg-1 every two days, versus saline)
C=CC[C@@H]1/C=C(\C)C[C@H](C)C[C@H](OC)[C@H]2O[C@@](O)(C(=O)C(=O)N3CCCC[C@H]3C(=O)O[C@H](/C(C)=C/[C@@H]3CC[C@@H](O)[C@H](OC)C3)[C@H](C)[C@@H](O)CC1=O)[C@H](C)C[C@@H]2OC [Tacrolimus] | 21 | accelerated | few hair follicles | 21 | increased | 11 | significantly increased | significantly higher | significantly greater |  |  | 
c1cc(CN2CCCNCCNCCCNCC2)ccc1CN1CCCNCCNCCCNCC1 [AMD3100, 1,1′-[1,4-phenylenebis(methylene)]bis-1,4,8,11-tetraazacyclo-tetradecane] | 21 | accelerated | few hair follicles | 23 | increased | 11 |  | significantly higher |  | relatively mild recruitment of stem cells | 51 | no significant difference; also recorded: failed to demonstrate significant difference
